Results reported in patent US20040096494A1, “Composition” (priority 2003, published 2004).

Details: minipig, in vivo

SMILES	oral bioavailability, expressed as the systemic exposure to ketoprofen relative to intravenous ketoprofen	oral bioavailability, expressed as the systemic exposure to diclofenac relative to intravenous diclofenac
CC(C(=O)OCCCCCCO[N+](=O)[O-])c1cccc(C(=O)c2ccccc2)c1 (stereo not drawn) [Compound of formula Ic]	82%	–
CC(C(=O)OCc1ccc(CO[N+](=O)[O-])cc1)c1cccc(C(=O)c2ccccc2)c1 (stereo not drawn) [Compound of formula If]	80%	–
O=C(Cc1ccccc1Nc1c(Cl)cccc1Cl)OCCCCO[N+](=O)[O-] [Compound of formula Ig]	–	85%
